Laboratory results from patent publication US20020055528A1, “Artemisinin analogs having antimalarial, antiproliferative, and antitumor activities and chemoselective methods of making the same” (priority 1999, published 2002).
Read-outs that look alike come from different tables or passages of the source.

Assays:
MDA-N = assay: NCI 60 cell line screen (SRB), Breast Cancer; type: cell-based; conditions: for Log10TGI: PG=0
HL-60(TB) = assay: NCI 60 cell line screen (SRB), Leukemia; type: cell-based; conditions: for Log10TGI: PG=0
SN12C = assay: NCI 60 cell line screen (SRB), Renal Cancer; type: cell-based; conditions: for Log10TGI: PG=0
MOLT-4 = conditions: for Log10TGI: PG=0
Protocol: The screening assay is performed on 96-well microtitre plates. Relatively high initial inoculation densities are used, in order to permit measurement of “time-zero” values and to enhance the screen's ability to detect and provide some differentiation between antiproliferative and cytotoxic response parameters. […] The inoculated microtitre plates are pre-incubated for 24 hours at 37θC prior to drug additions. The five drug dilutions tested routinely range from 10^−4 to 10^−8 molar. Higher or lower concentration ranges may be selected on a nonroutine basis if appropriate solubility and/or prior biological information or other screening data so dictate. Duplicate wells are prepared for all concentrations, (concentration is often denoted by placing brackets around a number); “time-zero” and “no drug” controls are also provided for each test. The minimum amount of compound required for a one-time evaluation in the routine screen can be calculated from the knowledge that each test requires a total of approximately 40 ml (0.04 liter) of cell culture medium containing the highest desired drug concentration. Thus, the amount (grams) of sample required (assuming an upper test concentration limit of 10^−4 M) is: molecular weight of compound×[…]. After a 48 hour incubation (37θC) with the test compound, the cells are fixed in situ to the bottoms of the microtitre wells by addition of 50 ul of either 50% trichloroacetic acid (for adherent cell lines) or 80% trichloroacetic acid (for settled cell suspension lines), followed by incubation for 60 minutes at 4θC. The cellular protein in each well is assayed using a sulforhodamine B (SRB) stain procedure. Briefly, after discarding the supernatants, the microtitre plates are washed 5 times with deionized water and air-dried. One hundred microliters of SRB solution (0.4% w/v in 1% acetic acid) is added to each microtitre well and incubated for 10 minutes at room temperature. Unbound SRB is removed by washing 5 times with 1 % acetic acid. The plates are air-dried, the bound stain is solubilized with Tris buffer, and the optical densities read at 515 nm. SRB is a bright pink anionic dye which, in dilute acetic acid, binds electrostatically to the basic amino acids of TCA-fixed cells. Cryopreserved master stocks of all the lines are maintained, and cultures used for screening are replaced from the master stock after no more than twenty passages in the screening laboratory. The cell line panel consists of 60 lines, organized into nine, disease-related subpanels including leukemia, non-small-cell lung cancer, colon, CNS, melanoma, ovarian, renal, prostate and breast cancers.
The response parameters G150 and LC50 are interpolated values representing the concentrations at which the percentage growth (PG) is +50 and −50, respectively:
GI50 is the concentration for which the PG=+50. At this value the increase from time tzero, in the number or mass of cells in the test well is only 50% as much as the corresponding increase in the control well during this period of the experiment, see Table II. A drug effect of this intensity is interpreted as primary growth inhibition.
TGI is the concentration for which PG=0. At this value the number or mass of cells in the well at the end of the experiment equals the number or mass of cells in the well at time tzero, see Table III. A drug effect of this intensity is regarded as cytostasis.
LC50 is the concentration for which the PG=−50. At this value, the number or mass of cells in the test well at the end of the experiment is half that at time tzero, see Table IV. This is interpreted as cytotoxicity.

HS 578T = assay: NCI 60 cell line screen (SRB), Breast Cancer; type: cell-based; conditions: for Log10TGI: PG=0
DU-145 = assay: NCI 60 cell line screen (SRB), Prostate Cancer; type: cell-based; conditions: for Log10TGI: PG=0
NCI/ADR-RES = assay: NCI 60 cell line screen (SRB), Breast Cancer; type: cell-based; conditions: for Log10TGI: PG=0
[1] = tested on: murine keratinocyte cell line PE; assay: Growth inhibition of PE cells, MTT assay; type: cell-based; conditions: 100 nanomolar; compared with calcitriol; FIG. 5
Protocol: To determine the inhibitory effect of the compositions of the present invention on cell proliferation, screening assays were performed on a murine keratinocyte cell line PE. Cell line PE was chosen for its particular sensitivity to the induction of omithine decarboxylase (ODC) activity by the extensively characterized tumor promoter TPA. Cell line PE was derived from a papilloma-induced in female SENCAR mice by a standard skin initiation/promotion protocol, see Yuspa, S. H., et al., Carcinogenesis, 7:949-958 (1986). PE cell culture medium consisted of Eagle's minimal essential medium without calcium chloride (Whittaker Bioproducts, Walkersville, Mass.) supplemented with 8% chelexed fetal calf serum and 1% antibiotic-antimycotic (Gibco BRL) and the addition of CaCI2 to 0.05 mM Ca^++
MTT [3-(4,5-dimethylthiazol-2-yl)-2,5-diphenyltetraxolium bromide] was purchased from Sigma Chemical Co. (St. Louis, Mo.), and TPA was supplied by L.C. Services (Woburn, Mass.). L-[^14C]omithine ([…]) was from Amersham/Searle Corp. (Arlington Heights, Ill.). Chemical solvents used in all assays of biological activity were of the highest grade commercially available.
Growth curves, shown in FIG. 5, for PE cells treated with calcitriol and the C-10 carbon-substituted dimers VII-f, VII-g and VII-h generated by assay for the reduction of the tetrazolium-based compound MTT, see Charmichael, et al., Cancer Res., 47:936-942 (1987). A mitochondrial dehydrogenase reduces MTT to a blue formazan product with an absorbance maximum of 505 nm in DMSO; the number of viable cells can thus be determined spectrophotometrically. PE cells were seeded at a density of 5,000 cells/well in 50 IL of medium into 96-well microtiter plates. Twelve hours later, the medium was removed, and cells were treated with 100 μL of fresh medium into which the appropriate amount of calcitriol or analog dissolved in dimethyl sulfoxide (DMSO) had been added, with the concentration of DMSO held constant at 0.1 %. […] At 24-hour intervals following the initial treatment of the cells with compounds, 0.1 mg (50 μL of a 2 mg/mL solution) of MTT was added to each well. After 4 hours, the MTT was removed and DMSO added to dissolve the blue formazan dye. Using a microtiter plate reader, the A505 was then determined and cell number calculated from blank-subtracted absorbance values.

SF-268 = assay: NCI 60 cell line screen (SRB), CNS Cancer; type: cell-based; conditions: for Log10TGI: PG=0; for Log10GI50: PG=+50
[2] = Table IV (LC50, PG=−50), MOLT−4

Compound | Log10TGI (MDA-N) | Log10GI50 (MDA-N; PG=+50) | Log10GI50 (MDA-N; Table IV (LC50, PG=−50)) | Log10TGI (HL-60(TB)) | Log10GI50 (HL-60(TB); PG=+50) | Log10GI50 (HL-60(TB); Table IV (LC50, PG=−50)) | Log10TGI (SN12C; SN12C) | Log10GI50 (SN12C; SNI2C, PG=+50) | Log10GI50 (SN12C; Table IV (LC50, PG=−50), SN12C) | Log10GI50 (MOLT-4; MOLT-4, PG=+50) | Log10TGI (MOLT-4; MOLT−4) | Log10GI50 (MOLT-4; [2]) | drug concentration for cytotoxicity (percentage growth −50) (MOLT-4; human, 48 h) | Log10GI50 (HS 578T; PG=+50) | Log10TGI (DU-145) | Log10GI50 (DU-145; PG=+50) | Log10GI50 (DU-145; Table IV (LC50, PG=−50)) | Log10TGI (NCI/ADR-RES) | Log10GI50 (NCI/ADR-RES; PG=+50) | Log10GI50 (NCI/ADR-RES; Table IV (LC50, PG=−50)) | also measured
C[C@@H]1CC[C@H]2[C@@H](C)C(=O)O[C@@H]3O[C@]4(C)CC[C@@H]1[C@]32OO4 [Artemisinin, artemisinin] | −4.00 log10M | −4.06 log10M | >−4.00 log10M | −4.00 log10M | −4.26 log10M | >−4.00 log10M | >−4.00 log10M | −4.21 log10M | >−4.00 log10M | −4.73 log10M | −4.00 log10M | >−4.00 log10M | greater than 10^−4 M | – | – | – | – | – | – | – | –
CC(=O)O[C@H]1C(=O)[C@@]2(C)[C@H]([C@H](OC(=O)c3ccccc3)[C@]3(O)C[C@H](OC(=O)[C@H](O)[C@@H](NC(=O)c4ccccc4)c4ccccc4)C(C)=C1C3(C)C)[C@]1(OC(C)=O)CO[C@@H]1C[C@@H]2O [Paclitaxel, paclitaxel, reference compound] | −6.32 log10M | −9.31 log10M | >−4.00 log10M | −11.57 log10M | −11.57 log10M | >−4.53 log10M | – | −9.53 log10M | >−4.00 log10M | −11.07 log10M | −11.07 log10M | >−4.00 log10M | greater than 10^−4 M | <-13.00 log10M | >−4.00 log10M | −9.38 log10M | >−4.00 log10M | >−4.00 log10M | −8.48 log10M | >−4.00 log10M | –
CC1=C(C=Cc2cccc(C=CC3=C(C)C4CCC(C)C5CCC6(C)OOC45C(O3)O6)c2)OC2OC3(C)CCC4C(C)CCC1C24OO3 (stereo not shown) [VII-f] | −4.18 log10M | −5.74 log10M | >−4.00 log10M | −6.71 log10M | −6.71 log10M | >−4.00 log10M | >−4.00 log10M | −5.73 log10M | >−4.00 log10M | −6.23 log10M | −6.23 log10M | >−4.00 log10M | – | −5.94 log10M | >−4.00 log10M | −5.16 log10M | >−4.00 log10M | −4.34 log10M | −5.29 log10M | >−4.00 log10M | Log10TGI (HS 578T): −4.31 log10M; Log10GI50 (HS 578T; Table IV (LC50, PG=−50)): >−4.00 log10M; antiproliferative activity in words [1]: at least as antiproliferative as calcitriol; Log10TGI (SF-268): >−4.00 log10M; Log10GI50 (SF-268): −5.70 log10M; drug concentration for cytotoxicity (percentage growth −50) (MOLT-4): greater than 10^−4 M; drug concentration for cytostasis (percentage growth 0) (MOLT-4; MOLT-4, FIGS. 6a-6e): approximately 10^−4 M; drug concentration for primary growth inhibition (percentage growth +50) (MOLT-4; MOLT-4, FIGS. 6a-6e): greater than 10^−6 molar
CC1=C(C=Cc2cccc(C=CC3=C(C)C4CCC(C)C5CCC6(C)OOC45C(O3)O6)c2)OC2OC3(C)CCC4C(C)CCC1C24OO3 (stereo not shown) [VII-g] | −4.83 log10M | −6.82 log10M | >−4.00 log10M | −7.20 log10M | −7.20 log10M | >−4.00 log10M | >−4.00 log10M | −6.69 log10M | >−4.00 log10M | −7.30 log10M | −7.30 log10M | >−4.00 log10M | – | −7.14 log10M | >−4.00 log10M | −5.71 log10M | >−4.00 log10M | >−4.00 log10M | −5.27 log10M | >−4.00 log10M | Log10TGI (HS 578T): −4.32 log10M; Log10GI50 (HS 578T; Table IV (LC50, PG=−50)): >−4.00 log10M; antiproliferative activity in words [1]: at least as antiproliferative as calcitriol; Log10TGI (SF-268): >−4.00 log10M; Log10GI50 (SF-268): −6.42 log10M; drug concentration for cytotoxicity (percentage growth −50) (MOLT-4): greater than 10^−4 M; drug concentration for primary growth inhibition (percentage growth +50) (MOLT-4; MOLT-4, FIGS. 6a-6e): > 10^−7 molar
